Test system: NLRP3 inflammasome
Test: IL-1β Secretion Assay (NLRP3-dependent IL-1β secretion in PMA-differentiated THP-1 cells, nigericin activation, HTRF)
Format: cell-based
Conditions: Homo sapiens, THP-1, THP-1 cells, 100 ng/mL PMA 24 h, compound 20 h, 2.5 μM Nigericin 3 h; read-out: IC50 IL-1β Inhibition
Experimental: Cells were washed 1× with 100 ul PBS and replaced with fresh RPMI+5% FBS. Compounds were serial diluted in DMSO with 3 fold dilution for a total of 7 concentrations.
Compounds, once produced and prepared according to the present invention, can be assessed in variety of assays to characterize their activities. […] IC50 values of IL1β inhibition were calculated from the plot of percentage of inhibition versus the inhibitor concentration by a logistics fit. TABLE I depict examples of compounds according to generic Formulae I. Data which is <1 nM is listed as *****; data 1-10 nM is listed as ****; data 10-100 nM is listed as ***, data 100-300 nM is listed as **, data >300 nM is listed as *.

First: CN1CCC[C@@H](Nc2nnc(-c3ccc(C(F)(F)F)cc3O)c3sccc23)C1 [Compound I-4]
Second: CN1CCC[C@@H](Nc2nnc(-c3ccc(C(F)(F)F)cc3O)c3ccncc23)C1 [Compound I-7]
The IC50 of the first is higher: 0.001 to 0.01 µM for the first, under 0.001 µM for the second. The second is the more potent here.

Compared with Oc1cc(C(F)(F)F)ccc1-c1nnc(NC2CCNC2)c2ccccc12 (stereo not shown) [Compound I-6], Oc1cc(C(F)(F)F)ccc1-c1nnc(N[C@@H]2CCCNC2)c2ccccc12 [Compound I-20, 2-[4-[[(3R)-3-Piperidyl]amino]phthalazin-1-yl]-5-(trifluoromethyl)phenol] is lower in IC50: 0.01 to 0.1 µM for the first, under 0.001 µM for the second. The second is the more potent here.

Cc1cccc2c(N[C@@H]3CCCN(C)C3)nnc(-c3ccc(C(F)(F)F)cc3O)c12 [Compound I-8] and CN1CCC[C@@H](Nc2nnc(-c3ccc(C(F)(F)F)cc3O)c3cc(F)ccc23)C1 [Compound I-9] fall in the same range of IC50: 0.001 to 0.01 µM for the first, 0.001 to 0.01 µM for the second.

First: CN1CCC[C@@H](Nc2nnc(-c3ccc(-n4nccn4)cc3O)c3ccccc23)C1 [Compound I-10, (R)-2-(4-((1-methylpiperidin-3-yl)amino)phthalazin-1-yl)-5-(2H-1,2,3-triazol-2-yl)phenol]
Second: CN1CCC[C@@H](Nc2nnc(-c3ccc(-n4ccnn4)cc3O)c3ccccc23)C1 [Compound I-37]
The IC50 of the first is lower: 0.001 to 0.01 µM for the first, 0.01 to 0.1 µM for the second. The first is the more potent here.

Compared with Oc1cc(C(F)(F)F)ccc1-c1nnc(N[C@@H]2CCCNC2)c2c1CCCC2 [Compound I-11, (R)-2-(4-(Piperidin-3-ylamino)-5,6,7,8-tetrahydrophthalazin-1-yl)-5-(trifluoromethyl)phenol], Oc1cc(C(F)(F)F)ccc1-c1nnc(N[C@@H]2CCCNC2)c2c1CCCCC2 [Compound I-31, (R)-2-(4-(Piperidin-3-ylamino)-6,7,8,9-tetrahydro-5H-cyclohepta[d]pyridazin-1-yl)-5-(trifluoromethyl)phenol] is lower in IC50: 0.01 to 0.1 µM for the first, under 0.001 µM for the second. The second is the more potent here.

Compared with CN1CCC[C@@H](Nc2nnc(-c3ccc(Cl)cc3O)c3ccccc23)C1 [Compound I-13], CN1CCC[C@@H](Nc2nnc(-c3ccc(O)cc3O)c3ccccc23)C1 [Compound I-15, (R)-4-(4-((1-methylpiperidin-3-yl)amino)phthalazin-1-yl)benzene-1,3-diol] is higher in IC50: under 0.001 µM for the first, 0.1 to 0.3 µM for the second. The first is the more potent here.

First: CN1CCC[C@@H](Nc2nnc(-c3c(O)cccc3F)c3ccccc23)C1 [Compound I-14]
Second: Cc1cccc(O)c1-c1nnc(N[C@@H]2CCCN(C)C2)c2ccccc12 [Compound I-50]
The IC50 of the first is higher: 0.001 to 0.01 µM for the first, under 0.001 µM for the second. The second is the more potent here.

Compared with CN1CCC[C@@H](Nc2nnc(-c3ccc(F)cc3O)c3ccccc23)C1 [Compound I-16], Cc1ccc(-c2nnc(N[C@@H]3CCCN(C)C3)c3ccccc23)c(O)c1 [Compound I-25] is lower in IC50: 0.001 to 0.01 µM for the first, under 0.001 µM for the second.

First: Cc1ccc(O)c(-c2nnc(N[C@@H]3CCCN(C)C3)c3ccccc23)c1 [Compound I-17]
Second: Cc1cc(O)c(-c2nnc(N[C@@H]3CCCN(C)C3)c3ccccc23)cc1F [Compound I-18]
The IC50 of the first is higher: 0.1 to 0.3 µM for the first, 0.001 to 0.01 µM for the second. The second is the more potent here.

CCN1CCC[C@@H](Nc2nnc(-c3ccc(C(F)(F)F)cc3O)c3c2CCCC3)C1 [Compound I-19] and OCCN1CCC[C@@H](Nc2nnc(-c3ccc(C(F)(F)F)cc3O)c3c2CCCC3)C1 [Compound I-62, 2-[4-[[(3R)-1-(2-hydroxyethyl)-3-piperidyl]amino]-5,6,7,8-tetrahydrophthalazin-1-yl]-5-(trifluoromethyl)phenol] cannot be ordered by IC50: under 0.001 µM for the first, under 0.001 µM for the second.

First: Oc1cc(C(F)(F)F)ccc1-c1nnc(O[C@@H]2CCCNC2)c2ccccc12 [Compound I-21]
Second: CN1CCC[C@H](Oc2nnc(-c3ccc(C(F)(F)F)cc3O)c3ccccc23)C1 [Compound I-22]
The IC50 of the first is lower: 0.01 to 0.1 µM for the first, 0.1 to 0.3 µM for the second. The first is the more potent here.

Compared with CC1CCCc2c(N[C@@H]3CCCNC3)nnc(-c3ccc(C(F)(F)F)cc3O)c21 (stereo partly shown) [Compound I-23], CC1(C)CCc2c(N[C@@H]3CCCNC3)nnc(-c3ccc(C(F)(F)F)cc3O)c21 [Compound I-45] is lower in IC50: 0.01 to 0.1 µM for the first, 0.001 to 0.01 µM for the second.

CN1CCC[C@@H](Nc2nnc(-c3ccc(C#N)cc3O)c3ccccc23)C1 [Compound I-24] and CN1CCC[C@@H](Nc2nnc(-c3ccc(C4CC4)cc3O)c3ccccc23)C1 [Compound I-49] cannot be ordered by IC50: under 0.001 µM for the first, under 0.001 µM for the second.

First: CN1CC[C@@H](Nc2nnc(-c3ccc(C(F)(F)F)cc3O)c3c2CCCC3)C1 [Compound I-26]
Second: CN1CCC[C@@H](Nc2nnc(-c3ccc(C(F)(F)F)cc3O)c3c2CCCCC3)C1 [Compound I-36, (R)-2-(4-((1-Methylpiperidin-3-yl)amino)-6,7,8,9-tetrahydro-5H-cyclohepta[d]pyridazin-1-yl)-5-(trifluoromethyl)phenol]
The IC50 of the first is higher: 0.01 to 0.1 µM for the first, under 0.001 µM for the second.

Compared with Cc1cccc(-c2nnc(N[C@@H]3CCCN(C)C3)c3ccccc23)c1O [Compound I-27], CN1CCC[C@@H](Nc2nnc(-c3cccc(F)c3O)c3ccccc23)C1 [Compound I-28] is higher in IC50: under 0.001 µM for the first, 0.01 to 0.1 µM for the second.

CN1CCC[C@@H](Oc2nnc(-c3ccc(C(F)(F)F)cc3O)c3ccccc23)C1 [Compound I-29] and CN1CCCC(Cc2nnc(-c3ccc(C(F)(F)F)cc3O)c3ccccc23)C1 (stereo not shown) [Compound I-44] fall in the same range of IC50: 0.001 to 0.01 µM for the first, 0.001 to 0.01 µM for the second.

First: Oc1cc(C(F)(F)F)ccc1-c1nnc(CC2CCCNC2)c2ccccc12 (stereo not shown) [Compound I-30]
Second: Oc1cc(C(F)(F)F)ccc1-c1nnc(NC[C@@H]2CCCN2)c2ccccc12 [Compound I-68]
The IC50 of the first is higher: 0.01 to 0.1 µM for the first, under 0.001 µM for the second.

Compared with Cc1nc(-c2ccc(-c3nnc(N[C@@H]4CCCNC4)c4ccccc34)c(O)c2)ns1 [Compound I-32], Cc1nc(-c2ccc(-c3nnc(N[C@@H]4CCCN(C)C4)c4ccccc34)c(O)c2)ns1 [Compound I-38] is lower in IC50: 0.01 to 0.1 µM for the first, under 0.001 µM for the second. The second is the more potent here.

CN1CCC[C@@H](Nc2nnc(-c3ccccc3O)c3ccccc23)C1 [Compound I-33] and CN1CCC[C@@H](Nc2nnc(-c3ccc(-c4ccccc4)cc3O)c3ccccc23)C1 [Compound I-39] fall in the same range of IC50: 0.001 to 0.01 µM for the first, 0.001 to 0.01 µM for the second.

CC(C)N1CCC[C@@H](Nc2nnc(-c3ccc(C(F)(F)F)cc3O)c3c2CCCC3)C1 [Compound I-34] and CN1CCC[C@@H](N(C)c2nnc(-c3ccc(C(F)(F)F)cc3O)c3c2CCCC3)C1 [Compound I-47, 2-[4-[Methyl-[(3R)-1-methyl-3-piperidyl]amino]-5,6,7,8-tetrahydrophthalazin-1-yl]-5-(trifluoromethyl)phenol] cannot be ordered by IC50: under 0.001 µM for the first, under 0.001 µM for the second.

Oc1cc(C(F)(F)F)ccc1-c1nnc(N[C@@H]2CCCNC2)c2cnccc12 [Compound I-35] and CCN1CCC[C@@H](Nc2nnc(-c3ccc(C(F)(F)F)cc3O)c3ccncc23)C1 [Compound I-43] cannot be ordered by IC50: under 0.001 µM for the first, under 0.001 µM for the second.

Compared with CN1CCC[C@@H](Nc2nnc(-c3cc(-c4ccccc4)ccc3O)c3ccccc23)C1 [Compound I-40], CN1CCC[C@@H](Nc2nnc(-c3ccc(C4=CCOC4)cc3O)c3ccccc23)C1 [Compound I-57] is lower in IC50: 0.1 to 0.3 µM for the first, 0.001 to 0.01 µM for the second. The second is the more potent here.

Compared with Cc1cc(O)c(-c2nnc(N[C@@H]3CCCN(C)C3)c3ccccc23)cc1C [Compound I-41], Cc1ccc(-c2nnc(N[C@@H]3CCCN(C)C3)c3ccccc23)c(O)c1C [Compound I-42] is lower in IC50: 0.001 to 0.01 µM for the first, under 0.001 µM for the second.

Compared with CN1CCC[C@@H](Nc2nnc(-c3ccc(C(F)(F)F)cc3O)c3c2CCC3(C)C)C1 [Compound I-46], CN1CCC[C@@H](Nc2nnc(-c3ccc(C(F)(F)F)cc3O)c3cnccc23)C1 [Compound I-54] is lower in IC50: 0.01 to 0.1 µM for the first, under 0.001 µM for the second.

OCCN1CCC[C@@H](Nc2nnc(-c3ccc(C(F)(F)F)cc3O)c3ccccc23)C1 [Compound I-48, 2-[4-[[(3R)-1-(2-Hydroxyethyl)-3-piperidyl]amino]phthalazin-1-yl]-5-(trifluoromethyl)phenol] and OCCN1CCC[C@@H](Nc2nnc(-c3ccc(C(F)(F)F)cc3O)c3ccncc23)C1 [Compound I-55] cannot be ordered by IC50: under 0.001 µM for the first, under 0.001 µM for the second.

First: Cc1ccc(-c2nnc(N[C@@H]3CCCN(C)C3)c3ccccc23)c(O)c1F [Compound I-51]
Second: CN1CC=C(c2ccc(-c3nnc(N[C@@H]4CCCN(C)C4)c4ccccc34)c(O)c2)C1 [Compound I-58]
The IC50 of the first is lower: under 0.001 µM for the first, 0.001 to 0.01 µM for the second. The first is the more potent here.

First: CN1CCC[C@@H](Nc2nnc(-c3ccc(C4=CCCOC4)cc3O)c3ccccc23)C1 [Compound I-52]
Second: CN1CCC[C@@H](Nc2nnc(-c3ccc(C4=CCOCC4)cc3O)c3ccccc23)C1 [Compound I-56]
The IC50 of the first is lower: 0.001 to 0.01 µM for the first, 0.01 to 0.1 µM for the second. The first is the more potent here.

Oc1cc(C(F)(F)F)ccc1-c1nnc(N[C@H]2CNC[C@@H](O)C2)c2ccccc12 [Compound I-53] and CN1C[C@@H](O)C[C@@H](Nc2nnc(-c3ccc(C(F)(F)F)cc3O)c3ccccc23)C1 [Compound I-63] fall in the same range of IC50: 0.001 to 0.01 µM for the first, 0.001 to 0.01 µM for the second.

CN1CCC[C@@H](Nc2nnc(-c3ccc(Cl)cc3O)c3cnccc23)C1 [Compound I-59] and CN1CCC[C@@H](Nc2nnc(-c3ccc(Cl)cc3O)c3ccncc23)C1 [Compound I-60] cannot be ordered by IC50: under 0.001 µM for the first, under 0.001 µM for the second.

First: CN1CCC[C@@H](Nc2nnc(-c3ccc(C4CCOC4)cc3O)c3ccccc23)C1 (stereo partly shown) [Compound I-61]
Second: Cc1ccc(-c2nnc(N[C@@H]3CCCN(C)C3)c3cnccc23)c(O)c1 [Compound I-71, 5-Methyl-2-[4-[[(3R)-1-methyl-3-piperidyl]amino]pyrido[3,4-d]pyridazin-1-yl]phenol]
The IC50 of the first is higher: 0.001 to 0.01 µM for the first, under 0.001 µM for the second. The second is the more potent here.

Compared with CC(=O)N1CCCC(Nc2nnc(-c3ccc(C(F)(F)F)cc3O)c3ccccc23)C1 (stereo not shown) [Compound I-64], CCOC(=O)CN1CCC[C@@H](Nc2nnc(-c3ccc(C(F)(F)F)cc3O)c3ccccc23)C1 [Compound I-65, Ethyl (R)-2-(3-((4-(2-hydroxy-4-(trifluoromethyl)phenyl)phthalazin-1-yl)amino)piperidin-1-yl)acetate] is lower in IC50: 0.01 to 0.1 µM for the first, under 0.001 µM for the second.

First: CN1CCC[C@@H](Nc2nnc(-c3ccc(Cl)cc3O)c3cccnc23)C1 [Compound I-67]
Second: CN1CCC[C@@H](Nc2nnc(-c3c(O)cccc3F)c3ccncc23)C1 [Compound I-72]
The IC50 of the first is lower: under 0.001 µM for the first, 0.001 to 0.01 µM for the second.

Source: patent publication US20240262806A1, “INHIBITORS OF NLRP3” (PTC THERAPEUTICS, INC., priority 2021, published 2024)
